According to BindingDB's records for patent US11214574 (Prelude Therapeutics, Incorporated, 2022):

Target: Methylosome protein 50/Protein arginine N-methyltransferase 5 (Homo sapiens, UniProt O14744+Q9BQA1)
Test: Biochemical Assay
Description: Compounds were solubilized and 3-fold diluted in 100% DMSO. […] Standard reactions were performed in a total volume of 30 μl in assay buffer, with 300 nM histone H4 based AcH4-23 (Anaspec: AS-65002) as substrate. To this was added the PRMT5/MEP50 complex diluted to provide a final assay concentration of 2.5 nM and the compounds were allowed to preincubate for 20 minutes at 37° C. The reaction was initiated by adding S-[3H-methyl]-adenosyl-L-methionine (PerkinElmer: NET155001MC) to final concentration of 1 μM. Following a 30 minutes incubation at 37° C., the reaction was stopped by adding 25 μL of 8M Guanidine HCl. Prepare streptavidin YSI SPA beads (Perkinelmer: RPNQ0012) at 0.3 mg/mL in assay buffer. To each reaction, add 150 μL of SPA beads suspension, and incubated while shaking at room temperature for 30 minutes. The plate was centrifuged at 100×g for 30 second before reading in a scintillation counter. IC50 values were determined by fitting the data to the standard 4 parameters with Hill Slope using GraphPad Prism software.

Methylosome protein 50/Protein arginine N-methyltransferase 5, sequence (O14744 whole entry): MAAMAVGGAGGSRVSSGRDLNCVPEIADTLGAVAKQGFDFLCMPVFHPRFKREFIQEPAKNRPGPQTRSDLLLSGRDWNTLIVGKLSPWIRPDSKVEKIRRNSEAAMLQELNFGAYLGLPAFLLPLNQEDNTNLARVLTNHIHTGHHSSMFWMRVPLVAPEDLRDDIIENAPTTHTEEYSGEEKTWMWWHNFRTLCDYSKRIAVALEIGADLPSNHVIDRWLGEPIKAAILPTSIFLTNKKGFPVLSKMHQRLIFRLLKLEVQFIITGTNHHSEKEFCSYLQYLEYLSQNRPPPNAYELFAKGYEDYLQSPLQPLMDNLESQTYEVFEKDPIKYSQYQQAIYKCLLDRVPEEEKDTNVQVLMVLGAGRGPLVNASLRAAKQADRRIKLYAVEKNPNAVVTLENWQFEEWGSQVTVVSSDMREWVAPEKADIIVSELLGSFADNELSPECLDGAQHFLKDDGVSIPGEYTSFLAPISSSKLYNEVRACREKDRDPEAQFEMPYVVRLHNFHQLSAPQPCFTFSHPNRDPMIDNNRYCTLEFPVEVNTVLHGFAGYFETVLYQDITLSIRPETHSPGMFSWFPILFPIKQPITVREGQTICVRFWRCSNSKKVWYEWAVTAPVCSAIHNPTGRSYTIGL
Methylosome protein 50/Protein arginine N-methyltransferase 5, sequence (Q9BQA1 whole entry): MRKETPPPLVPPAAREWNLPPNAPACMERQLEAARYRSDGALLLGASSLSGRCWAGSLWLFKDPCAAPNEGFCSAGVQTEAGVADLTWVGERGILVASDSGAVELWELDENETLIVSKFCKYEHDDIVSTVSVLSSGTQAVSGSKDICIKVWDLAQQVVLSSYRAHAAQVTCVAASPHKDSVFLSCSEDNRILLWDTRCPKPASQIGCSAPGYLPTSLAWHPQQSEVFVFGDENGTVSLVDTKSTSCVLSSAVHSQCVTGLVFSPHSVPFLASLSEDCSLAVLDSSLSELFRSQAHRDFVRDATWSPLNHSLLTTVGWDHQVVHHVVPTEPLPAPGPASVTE

IC50: 0.27 µM
Structure (SMILES): Nc1ncnc2c1ccn2[C@@H]1O[C@H]([C@H]2OC(=O)c3cc(Cl)ccc32)[C@@H](O)[C@H]1O [US11214574, Ex# 1B]
